# pIC50: −log10 of the molar value.
# Legend:
# [1] = target: T1, Human Factor XIIa (hFXIIa) (Homo sapiens, UniProt P00748); assay: Determination of Human Factor XIIa (hFXIIa) inhibition, fluorogenic substrate IC50 assay; format: biochemical; details: fluorogenic substrate H-DPro-Phe-Arg-AFC at Km, 25° C., read-out: Human FXIIa IC50
# T1 construct: purchased Enzyme Research Laboratories
# T1 sequence (P00748 373-615 limits assumed): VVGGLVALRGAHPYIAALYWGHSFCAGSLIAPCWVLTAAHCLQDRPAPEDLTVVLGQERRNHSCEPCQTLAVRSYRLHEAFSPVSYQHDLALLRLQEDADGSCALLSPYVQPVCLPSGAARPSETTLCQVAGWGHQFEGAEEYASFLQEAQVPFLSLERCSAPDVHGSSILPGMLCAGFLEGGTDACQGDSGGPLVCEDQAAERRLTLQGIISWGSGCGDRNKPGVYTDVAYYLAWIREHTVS
# T1 sequence (P00748 20-372 partner limits assumed): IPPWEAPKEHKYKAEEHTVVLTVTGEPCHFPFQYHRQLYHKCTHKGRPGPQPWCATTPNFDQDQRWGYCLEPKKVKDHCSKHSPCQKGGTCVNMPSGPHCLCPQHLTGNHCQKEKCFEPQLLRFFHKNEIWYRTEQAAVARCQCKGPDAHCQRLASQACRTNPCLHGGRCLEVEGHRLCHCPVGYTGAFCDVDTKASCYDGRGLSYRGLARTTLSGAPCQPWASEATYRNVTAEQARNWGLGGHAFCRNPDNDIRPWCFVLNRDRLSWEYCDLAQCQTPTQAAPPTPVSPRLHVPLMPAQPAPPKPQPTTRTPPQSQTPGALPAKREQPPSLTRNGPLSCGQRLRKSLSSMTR
# Procedure: Determination of Human Factor XIIa (hFXIIa) inhibition
# The Km for the cleavage of the substrate by hFXIIa was determined by standard transformation of the Michaelis-Menten equation, with subsequent inhibition assays performed at substrate Km concentration.
# FXa = FXa (Homo sapiens, UniProt P00742); assay: Related protease inhibition: FXa, fluorogenic substrate; format: biochemical; details: fluorogenic substrate at Km, 25° C.; H1-H3 = % activity at 40 μM
# Sequence of FXa (P00742 235-488 limits assumed): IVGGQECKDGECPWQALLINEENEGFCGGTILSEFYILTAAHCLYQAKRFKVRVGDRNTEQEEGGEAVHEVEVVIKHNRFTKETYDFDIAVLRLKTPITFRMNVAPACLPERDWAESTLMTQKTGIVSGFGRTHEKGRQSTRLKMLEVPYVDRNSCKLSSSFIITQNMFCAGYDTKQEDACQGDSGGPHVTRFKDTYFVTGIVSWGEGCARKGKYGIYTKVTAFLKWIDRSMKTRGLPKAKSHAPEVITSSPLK
# Sequence of FXa (P00742 41-179 partner limits assumed): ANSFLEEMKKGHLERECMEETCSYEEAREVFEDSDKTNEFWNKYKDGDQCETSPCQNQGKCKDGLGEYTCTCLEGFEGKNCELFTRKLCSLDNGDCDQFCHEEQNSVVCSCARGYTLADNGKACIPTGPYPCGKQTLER
# Procedure: Human serine protease enzyme Plasma Kallikrein, KLK1, FXa, Plasmin, Thrombin and Trypsin were assayed for enzymatic activity using an appropriate fluorogenic substrate at Km concentration, FXIa at fixed substrate concentration of 100 μM and various concentrations of the test compound.
pIC50 [1],pIC50 (FXa),SMILES
6.00 to 6.52,< 4.40,"CN1CCc2ccc(N3CCc4c(C(=O)NCC5CCOC5)nn(-c5cccc(Cl)c5)c4C3=O)cc2C1=O (stereo not shown) [Example 1198, 1-(3-chlorophenyl)-6-(2-methyl-1-oxo-1,2,3,4-tetrahydroisoquinolin-7-yl)-7-oxo-N-((tetrahydrofuran-3-yl)methyl)-4,5,6,7-tetrahydro-1H-pyrazolo[3,4-c]pyridine-3-carboxamide]"
6.52 to 7.00,< 4.40,"Cc1nc2c(C(=O)NCC3CC3)nn(-c3cccc(Cl)c3)c2c(=O)n1-c1ccc2c(c1)C(=O)N(CCO)CC2 [Example 3016, 1-(3-chlorophenyl)-N-(cyclopropylmethyl)-6-(2-(2-hydroxyethyl)-1-oxo-1,2,3,4-tetrahydroisoquinolin-7-yl)-5-methyl-7-oxo-6,7-dihydro-1H-pyrazolo[4,3-d]pyrimidine-3-carboxamide]"
5.52 to 6.00,4.40 to 5.00,"CN1CCc2ccc(N3CCc4c(C(=O)N5CCCO5)nn(-c5cccc(Cl)c5)c4C3=O)cc2C1=O [Example 1343, 7-(1-(3-chlorophenyl)-3-(isoxazolidine-2-carbonyl)-7-oxo-1,4,5,7-tetrahydro-6H-pyrazolo[3,4-c]pyridin-6-yl)-2-methyl-3,4-dihydroisoquinolin-1(2H)-one]"
6.52 to 7.00,4.40 to 5.00,"CCNC(=O)c1nn(-c2cccc(Cl)c2)c2c1CCN(c1ccc3c(c1)C(=O)N(CC)CCO3)C2=O [Example 1371, 1-(3-chlorophenyl)-N-ethyl-6-(4-ethyl-5-oxo-2,3,4,5-tetrahydrobenzo[f][1,4]oxazepin-7-yl)-7-oxo-4,5,6,7-tetrahydro-1H-pyrazolo[3,4-c]pyridine-3-carboxamide]"
6.52 to 7.00,< 4.40,"CCN1CCc2ccc(N3CCc4c(C(=O)NC5CCOCC5)nn(-c5cccc(Cl)c5)c4C3=O)cc2C1 [Example 1085, 1-(3-chlorophenyl)-6-(2-ethyl-1,2,3,4-tetrahydroisoquinolin-7-yl)-7-oxo-N-(tetrahydro-2H-pyran-4-yl)-4,5,6,7-tetrahydro-1H-pyrazolo[3,4-c]pyridine-3-carboxamide]"
5.00 to 5.52,< 4.00,"O=C(c1nn(-c2cccc(Cl)c2)c2c1CCN(c1cccc(CN3CCCCC3)c1)C2=O)N1CCCC1 [Example 1009, 1-(3-chlorophenyl)-6-(3-(piperidin-1-ylmethyl)phenyl)-3-(pyrrolidine-1-carbonyl)-1,4,5,6-tetrahydro-7H-pyrazolo[3,4-c]pyridin-7-one]"
6.52 to 7.00,< 4.40,"Cc1ccncc1CNC(=O)c1nn(-c2cccc(C#N)c2)c2c1CCN(c1ccc3c(c1)CN(CCO)CC3)C2=O [Example 2010, 1-(3-cyanophenyl)-6-(2-(2-hydroxyethyl)-1,2,3,4-tetrahydroisoquinolin-7-yl)-N-((4-methylpyridin-3-yl)methyl)-7-oxo-4,5,6,7-tetrahydro-1H-pyrazolo[3,4-c]pyridine-3-carboxamide]"
6.52 to 7.00,< 4.40,"Cc1cc(CNC(=O)c2nn(-c3cccc(Cl)c3)c3c2CCN(c2ccc4c(c2)C(=O)N(CC2CCOC2)CC4)C3=O)nn1C (stereo not shown) [Example 1258, 1-(3-chlorophenyl)-N-((1,5-dimethyl-1H-pyrazol-3-yl)methyl)-7-oxo-6-(1-oxo-2-((tetrahydrofuran-3-yl)methyl)-1,2,3,4-tetrahydroisoquinolin-7-yl)-4,5,6,7-tetrahydro-1H-pyrazolo[3,4-c]pyridine-3-carboxamide]"
5.52 to 6.00,< 4.40,"O=C(Cn1nc(-c2cccc(Cl)c2)c2c1CCN(c1ccc3c(c1)CN(CCO)CC3)C2=O)NCC1CC1 [Example 4002, 2-[3-(3-Chlorophenyl)-5-[2-(2-hydroxyethyl)-3,4-dihydro-1H-isoquinolin-7-yl]-4-oxo-6,7-dihydropyrazolo[4,3-c]pyridin-1-yl]-N-(cyclopropylmethyl) acetamide]"
7.00 to 8.00,4.40 to 5.00,"Cn1cc(Cl)c(CNC(=O)c2nn(-c3cccc(Cl)c3)c3c2CCN(c2ccc4c(c2)CN(CCO)CC4)C3=O)n1 [Example 1155, N-((4-chloro-1-methyl-1H-pyrazol-3-yl)methyl)-1-(3-chlorophenyl)-6-(2-(2-hydroxyethyl)-1,2,3,4-tetrahydroisoquinolin-7-yl)-7-oxo-4,5,6,7-tetrahydro-1H-pyrazolo[3,4-c]pyridine-3-carboxamide]"
7.00 to 8.00,4.40 to 5.00,"Cc1cc(CNC(=O)c2nn(-c3cccc(Cl)c3F)c3c2CCN(c2ccc4c(c2)C(=O)N(C)CC4)C3=O)n[nH]1 [Example 2040, 1-(3-chloro-2-fluorophenyl)-6-(2-methyl-1-oxo-1,2,3,4-tetrahydroisoquinolin-7-yl)-N-((5-methyl-1H-pyrazol-3-yl)methyl)-7-oxo-4,5,6,7-tetrahydro-1H-pyrazolo[3,4-c]pyridine-3-carboxamide]"
5.52 to 6.00,< 4.40,"Cc1cc(CNC(=O)c2nn(-c3cccc(Cl)c3)c3c2CCN(c2ccc4c(c2)C(=O)N(C)C4)C3=O)nn1C [Example 1206, 1-(3-chlorophenyl)-N-((1,5-dimethyl-1H-pyrazol-3-yl)methyl)-6-(2-methyl-3-oxoisoindolin-5-yl)-7-oxo-4,5,6,7-tetrahydro-1H-pyrazolo[3,4-c]pyridine-3-carboxamide]"
5.52 to 6.00,< 4.40,"CCNC(=O)c1nn(-c2cccc(Cl)c2)c2c1CCN(c1cccc(N3CC4CC4C3=O)c1)C2=O (stereo not shown) [Example 1368, 1-(3-chlorophenyl)-N-ethyl-7-oxo-6-(3-(2-oxo-3-azabicyclo[3.1.0]hexan-3-yl)phenyl)-4,5,6,7-tetrahydro-1H-pyrazolo[3,4-c]pyridine-3-carboxamide]"
6.52 to 7.00,4.40 to 5.00,"CCN1CCOc2ccc(N3CCc4c(C(=O)NCC5CC5)nn(-c5cccc(Cl)c5)c4C3=O)cc2C1=O [Example 1374, 1-(3-chlorophenyl)-N-(cyclopropylmethyl)-6-(4-ethyl-5-oxo-2,3,4,5-tetrahydrobenzo[f][1,4]oxazepin-7-yl)-7-oxo-4,5,6,7-tetrahydro-1H-pyrazolo[3,4-c]pyridine-3-carboxamide]"
6.52 to 7.00,4.40 to 5.00,"O=C(NC1CCOCC1)c1nn(-c2cccc(Cl)c2)c2c1CCN(c1ccc3c(c1)CN(CCO)CC3)C2=O [Example 1076, 1-(3-chlorophenyl)-6-(2-(2-hydroxyethyl)-1,2,3,4-tetrahydroisoquinolin-7-yl)-7-oxo-N-(tetrahydro-2H-pyran-4-yl)-4,5,6,7-tetrahydro-1H-pyrazolo[3,4-c]pyridine-3-carboxamide]"
7.00 to 8.00,4.40 to 5.00,"Cc1cc(CNC(=O)c2nn(-c3cccc(Cl)c3)c3c2CCN(c2cc4c(cc2F)CCN(CCO)C4)C3=O)[nH]n1 [Example 1125, 1-(3-chlorophenyl)-6-(6-fluoro-2-(2-hydroxyethyl)-1,2,3,4-tetrahydroisoquinolin-7-yl)-N-((3-methyl-1H-pyrazol-5-yl)methyl)-7-oxo-4,5,6,7-tetrahydro-1H-pyrazolo[3,4-c]pyridine-3-carboxamide]"
6.52 to 7.00,< 4.40,"O=C(NCc1ccccc1)c1nn(-c2cccc(Cl)c2)c2c1CCN(c1ccc3c(c1)CN(CC1CC1)CC3)C2=O [Example 1019, N-benzyl-1-(3-chlorophenyl)-6-(2-(cyclopropylmethyl)-1,2,3,4-tetrahydroisoquinolin-7-yl)-7-oxo-4,5,6,7-tetrahydro-1H-pyrazolo[3,4-c]pyridine-3-carboxamide]"
6.52 to 7.00,< 4.40,"CN1CCc2ccc(N3CCc4c(C(=O)NC5CCOCC5)nn(-c5cccc(Cl)c5)c4C3=O)cc2C1=O [Example 1203, 1-(3-chlorophenyl)-6-(2-methyl-1-oxo-1,2,3,4-tetrahydroisoquinolin-7-yl)-7-oxo-N-(tetrahydro-2H-pyran-4-yl)-4,5,6,7-tetrahydro-1H-pyrazolo[3,4-c]pyridine-3-carboxamide]"
6.52 to 7.00,4.40 to 5.00,"CN1CCc2ccc(N3CCc4c(C(=O)NCc5cccnc5)nn(-c5cccc(Cl)c5)c4C3=O)cc2C1 [Example 1015, 1-(3-chlorophenyl)-6-(2-methyl-1,2,3,4-tetrahydroisoquinolin-7-yl)-7-oxo-N-(pyridin-3-ylmethyl)-4,5,6,7-tetrahydro-1H-pyrazolo[3,4-c]pyridine-3-carboxamide]"
6.00 to 6.52,< 4.40,"CN1CCc2ccc(N3CCc4c(C(=O)NCCF)nn(-c5cccc(Cl)c5)c4C3=O)cc2C1=O [Example 1384, 1-(3-chlorophenyl)-N-(2-fluoroethyl)-6-(2-methyl-1-oxo-1,2,3,4-tetrahydroisoquinolin-7-yl)-7-oxo-4,5,6,7-tetrahydro-1H-pyrazolo[3,4-c]pyridine-3-carboxamide]"
